{
  "source": "paper PMC7206119",
  "about": "“RIP1 inhibition blocks inflammatory diseases but not tumor growth or metastases” (Cell Death and Differentiation, 2019)",
  "test_in_all_cases": "biochemical",
  "set-up_in_all_cases": "Thermo Fisher SelectScreen kinase panel: Z'-LYTE and Adapta activity, LanthaScreen binding",
  "key": {"TRKA": {"target": "T1, TRKA (Homo sapiens, UniProt P04629)", "T1 construct": "gene NTRK1", "in_short": "(§1)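 GNE684 profiled at 10 µM across 221 kinases with Z'-LYTE and Adapta activity and LanthaScreen binding formats. Also screened at 10 µM against 468 kinases in KINOMEscan scanMAX binding assay.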"}, "CLK1": {"target": "CLK1 (Homo sapiens, UniProt P49759)", "sequence (P49759 whole entry)": "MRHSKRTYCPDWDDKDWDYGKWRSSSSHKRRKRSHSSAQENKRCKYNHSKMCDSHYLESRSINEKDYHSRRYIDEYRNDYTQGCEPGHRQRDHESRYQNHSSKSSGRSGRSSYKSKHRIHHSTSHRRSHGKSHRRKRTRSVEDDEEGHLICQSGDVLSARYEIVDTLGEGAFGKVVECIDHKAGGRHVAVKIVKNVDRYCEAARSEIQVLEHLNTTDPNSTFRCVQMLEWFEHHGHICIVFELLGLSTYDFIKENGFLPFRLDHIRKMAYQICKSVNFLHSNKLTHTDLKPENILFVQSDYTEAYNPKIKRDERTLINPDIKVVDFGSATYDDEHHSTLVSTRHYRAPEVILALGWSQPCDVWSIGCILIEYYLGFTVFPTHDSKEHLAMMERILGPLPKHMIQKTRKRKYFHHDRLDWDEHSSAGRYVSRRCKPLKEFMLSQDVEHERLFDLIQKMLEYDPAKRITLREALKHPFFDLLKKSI", "in_short": "as §1"}, "CLK4": {"target": "CLK4 (Homo sapiens, UniProt Q9HAZ1)", "sequence (Q9HAZ1 whole entry)": "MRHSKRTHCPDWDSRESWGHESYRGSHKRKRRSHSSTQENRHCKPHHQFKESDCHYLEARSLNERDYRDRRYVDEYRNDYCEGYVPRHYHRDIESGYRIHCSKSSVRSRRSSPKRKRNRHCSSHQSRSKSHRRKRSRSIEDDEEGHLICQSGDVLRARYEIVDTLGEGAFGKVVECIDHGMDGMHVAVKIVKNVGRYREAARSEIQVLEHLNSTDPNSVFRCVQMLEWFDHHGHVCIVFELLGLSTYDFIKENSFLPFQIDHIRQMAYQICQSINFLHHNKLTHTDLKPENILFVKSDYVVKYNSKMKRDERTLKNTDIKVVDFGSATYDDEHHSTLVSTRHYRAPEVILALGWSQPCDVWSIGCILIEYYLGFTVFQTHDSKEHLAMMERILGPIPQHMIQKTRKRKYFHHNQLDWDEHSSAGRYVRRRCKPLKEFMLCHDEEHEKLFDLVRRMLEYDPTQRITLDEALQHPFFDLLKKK", "in_short": "as §1"}, "Abl": {"target": "T2, Abl (Homo sapiens, UniProt P00519)", "T2 construct": "gene ABL1", "in_short": "as §1"}, "FLT3": {"target": "FLT3 (Homo sapiens, UniProt P36888)", "sequence (P36888 whole entry)": "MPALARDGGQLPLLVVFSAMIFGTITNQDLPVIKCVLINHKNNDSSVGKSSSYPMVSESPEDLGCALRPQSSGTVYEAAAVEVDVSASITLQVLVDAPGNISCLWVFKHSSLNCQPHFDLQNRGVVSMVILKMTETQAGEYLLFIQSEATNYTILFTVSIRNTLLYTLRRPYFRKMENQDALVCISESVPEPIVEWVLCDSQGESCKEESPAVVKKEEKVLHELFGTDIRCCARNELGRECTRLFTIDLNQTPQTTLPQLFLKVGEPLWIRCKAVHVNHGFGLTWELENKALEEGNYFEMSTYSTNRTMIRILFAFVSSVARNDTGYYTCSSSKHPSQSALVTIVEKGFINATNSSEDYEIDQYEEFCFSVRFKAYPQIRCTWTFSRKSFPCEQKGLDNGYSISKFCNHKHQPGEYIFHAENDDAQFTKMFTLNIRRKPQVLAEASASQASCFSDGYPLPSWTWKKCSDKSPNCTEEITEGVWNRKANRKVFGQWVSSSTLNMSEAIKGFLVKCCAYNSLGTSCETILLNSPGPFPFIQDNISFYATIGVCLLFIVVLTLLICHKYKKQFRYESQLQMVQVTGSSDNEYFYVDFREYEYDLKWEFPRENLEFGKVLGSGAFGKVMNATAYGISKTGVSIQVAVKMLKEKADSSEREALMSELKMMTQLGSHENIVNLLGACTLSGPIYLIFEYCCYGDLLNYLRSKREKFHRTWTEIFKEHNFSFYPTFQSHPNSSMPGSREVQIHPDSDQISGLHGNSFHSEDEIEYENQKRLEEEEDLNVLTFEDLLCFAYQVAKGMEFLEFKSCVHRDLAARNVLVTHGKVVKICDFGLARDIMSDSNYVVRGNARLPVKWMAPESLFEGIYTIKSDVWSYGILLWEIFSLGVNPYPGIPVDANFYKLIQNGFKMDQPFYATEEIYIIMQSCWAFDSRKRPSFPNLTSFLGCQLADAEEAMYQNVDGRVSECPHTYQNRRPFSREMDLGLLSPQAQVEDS", "in_short": "as §1"}, "EPHB3": {"target": "EPHB3 (Homo sapiens, UniProt P54753)", "in_short": "as §1"}, "PI3K-G": {"target": "T3, PI3K-G (Homo sapiens, UniProt P48736)", "T3 construct": "gene PIK3CG; p110gamma", "T3 sequence (P48736 whole entry)": "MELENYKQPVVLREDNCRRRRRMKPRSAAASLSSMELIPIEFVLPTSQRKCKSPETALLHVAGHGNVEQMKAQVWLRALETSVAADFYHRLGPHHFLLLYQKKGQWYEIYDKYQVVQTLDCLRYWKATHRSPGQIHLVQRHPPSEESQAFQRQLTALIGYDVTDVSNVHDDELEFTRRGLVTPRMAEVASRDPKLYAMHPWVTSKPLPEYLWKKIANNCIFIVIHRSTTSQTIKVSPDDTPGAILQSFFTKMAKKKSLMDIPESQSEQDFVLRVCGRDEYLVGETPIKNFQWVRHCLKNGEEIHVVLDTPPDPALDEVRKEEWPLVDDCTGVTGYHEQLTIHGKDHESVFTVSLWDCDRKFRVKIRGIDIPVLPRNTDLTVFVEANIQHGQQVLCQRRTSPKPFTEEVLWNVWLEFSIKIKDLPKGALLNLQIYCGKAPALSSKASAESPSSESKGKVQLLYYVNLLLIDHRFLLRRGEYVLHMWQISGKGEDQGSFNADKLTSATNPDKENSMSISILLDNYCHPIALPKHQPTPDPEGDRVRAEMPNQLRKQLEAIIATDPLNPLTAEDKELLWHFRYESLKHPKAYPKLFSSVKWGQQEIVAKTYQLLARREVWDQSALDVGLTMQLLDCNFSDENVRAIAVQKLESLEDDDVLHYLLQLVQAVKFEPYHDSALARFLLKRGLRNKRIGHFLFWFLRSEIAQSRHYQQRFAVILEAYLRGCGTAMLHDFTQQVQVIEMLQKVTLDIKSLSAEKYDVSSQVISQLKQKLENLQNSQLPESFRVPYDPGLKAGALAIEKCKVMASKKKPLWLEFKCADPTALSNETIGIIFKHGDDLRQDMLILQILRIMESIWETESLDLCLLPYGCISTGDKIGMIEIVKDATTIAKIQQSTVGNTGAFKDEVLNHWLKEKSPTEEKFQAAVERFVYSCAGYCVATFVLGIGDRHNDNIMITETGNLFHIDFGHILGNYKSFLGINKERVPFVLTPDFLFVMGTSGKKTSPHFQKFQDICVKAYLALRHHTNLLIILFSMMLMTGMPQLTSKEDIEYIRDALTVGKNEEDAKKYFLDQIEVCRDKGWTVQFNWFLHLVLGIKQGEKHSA", "in_short": "as §1"}, "GRK6": {"target": "GRK6 (Homo sapiens, UniProt P43250)", "in_short": "as §1"}, "MEKK2": {"target": "T4, MEKK2 (Homo sapiens, UniProt Q9Y2U5)", "T4 construct": "gene MAP3K2", "T4 sequence (Q9Y2U5 whole entry)": "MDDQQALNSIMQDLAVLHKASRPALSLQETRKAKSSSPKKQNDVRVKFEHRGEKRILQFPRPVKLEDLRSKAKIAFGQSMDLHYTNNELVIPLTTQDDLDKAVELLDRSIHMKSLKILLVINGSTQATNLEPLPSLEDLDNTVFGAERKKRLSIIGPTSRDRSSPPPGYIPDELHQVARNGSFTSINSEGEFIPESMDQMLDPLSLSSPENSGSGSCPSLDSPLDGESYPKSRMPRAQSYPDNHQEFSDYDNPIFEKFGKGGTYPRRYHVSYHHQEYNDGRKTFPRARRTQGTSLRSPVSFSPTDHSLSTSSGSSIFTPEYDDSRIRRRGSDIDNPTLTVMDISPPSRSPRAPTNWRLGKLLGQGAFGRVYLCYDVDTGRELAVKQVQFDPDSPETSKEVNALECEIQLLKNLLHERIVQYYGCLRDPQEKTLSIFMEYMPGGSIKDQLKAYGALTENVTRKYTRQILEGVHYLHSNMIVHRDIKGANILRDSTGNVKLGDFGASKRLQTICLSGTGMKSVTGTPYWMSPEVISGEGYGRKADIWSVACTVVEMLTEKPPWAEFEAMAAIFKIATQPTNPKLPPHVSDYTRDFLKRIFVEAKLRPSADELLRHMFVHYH", "in_short": "as §1"}, "TNK2": {"target": "TNK2 (Homo sapiens, UniProt Q07912)", "in_short": "as §1"}, "NEK6": {"target": "NEK6 (Homo sapiens, UniProt Q9HC98)", "sequence (Q9HC98 whole entry)": "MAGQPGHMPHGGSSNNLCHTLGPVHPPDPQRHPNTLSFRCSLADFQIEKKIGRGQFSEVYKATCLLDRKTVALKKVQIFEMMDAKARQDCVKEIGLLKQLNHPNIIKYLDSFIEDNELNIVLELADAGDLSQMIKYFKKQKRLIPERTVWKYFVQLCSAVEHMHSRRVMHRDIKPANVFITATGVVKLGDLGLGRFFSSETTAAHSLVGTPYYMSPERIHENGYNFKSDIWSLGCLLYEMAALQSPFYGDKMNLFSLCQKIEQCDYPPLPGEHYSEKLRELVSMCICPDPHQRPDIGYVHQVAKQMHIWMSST", "in_short": "as §1"}, "FGR": {"target": "FGR (Homo sapiens, UniProt P09769)", "in_short": "as §1"}, "SIK2": {"target": "SIK2 (Homo sapiens, UniProt Q9H0K1)", "in_short": "as §1"}, "PDK1(direct)": {"target": "T5, PDK1(direct) (Homo sapiens, UniProt O15530)", "T5 construct": "gene PDPK1; direct", "in_short": "as §1"}, "RSK1": {"target": "T6, RSK1 (Homo sapiens, UniProt Q15418)", "T6 construct": "gene RPS6KA1", "in_short": "as §1"}, "RIPK2": {"target": "RIPK2 (Homo sapiens, UniProt O43353)", "in_short": "as §1"}, "IKK-epsilon": {"target": "T7, IKK-epsilon (Homo sapiens, UniProt Q14164)", "T7 construct": "gene IKBKE", "in_short": "as §1"}, "MSK1": {"target": "T8, MSK1 (Homo sapiens, UniProt O75582)", "T8 construct": "gene RPS6KA5", "in_short": "as §1"}, "ARK5": {"target": "T9, ARK5 (Homo sapiens, UniProt O60285)", "T9 construct": "gene NUAK1", "in_short": "as §1"}, "FLT1": {"target": "FLT1 (Homo sapiens, UniProt P17948)", "in_short": "as §1"}, "p70S6K": {"target": "T10, p70S6K (Homo sapiens, UniProt P23443)", "T10 construct": "gene RPS6KB1", "T10 sequence (P23443 whole entry)": "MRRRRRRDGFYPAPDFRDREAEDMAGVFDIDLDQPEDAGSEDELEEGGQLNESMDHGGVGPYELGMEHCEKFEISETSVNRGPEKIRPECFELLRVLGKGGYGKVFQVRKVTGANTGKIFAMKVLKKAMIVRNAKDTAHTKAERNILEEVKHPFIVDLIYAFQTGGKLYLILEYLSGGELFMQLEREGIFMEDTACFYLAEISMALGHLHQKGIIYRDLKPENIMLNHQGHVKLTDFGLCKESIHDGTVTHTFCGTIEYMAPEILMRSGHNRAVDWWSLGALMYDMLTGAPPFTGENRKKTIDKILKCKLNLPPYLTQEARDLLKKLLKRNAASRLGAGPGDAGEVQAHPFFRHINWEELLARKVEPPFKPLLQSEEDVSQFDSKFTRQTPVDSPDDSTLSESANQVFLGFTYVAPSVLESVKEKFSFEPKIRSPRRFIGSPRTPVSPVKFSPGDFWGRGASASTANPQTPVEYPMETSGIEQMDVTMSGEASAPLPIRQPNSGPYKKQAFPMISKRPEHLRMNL", "in_short": "as §1"}, "HIPK2": {"target": "HIPK2 (Homo sapiens, UniProt Q9H2X6)", "in_short": "as §1"}, "SGK3": {"target": "SGK3 (Homo sapiens, UniProt Q96BR1)", "sequence (Q96BR1 whole entry)": "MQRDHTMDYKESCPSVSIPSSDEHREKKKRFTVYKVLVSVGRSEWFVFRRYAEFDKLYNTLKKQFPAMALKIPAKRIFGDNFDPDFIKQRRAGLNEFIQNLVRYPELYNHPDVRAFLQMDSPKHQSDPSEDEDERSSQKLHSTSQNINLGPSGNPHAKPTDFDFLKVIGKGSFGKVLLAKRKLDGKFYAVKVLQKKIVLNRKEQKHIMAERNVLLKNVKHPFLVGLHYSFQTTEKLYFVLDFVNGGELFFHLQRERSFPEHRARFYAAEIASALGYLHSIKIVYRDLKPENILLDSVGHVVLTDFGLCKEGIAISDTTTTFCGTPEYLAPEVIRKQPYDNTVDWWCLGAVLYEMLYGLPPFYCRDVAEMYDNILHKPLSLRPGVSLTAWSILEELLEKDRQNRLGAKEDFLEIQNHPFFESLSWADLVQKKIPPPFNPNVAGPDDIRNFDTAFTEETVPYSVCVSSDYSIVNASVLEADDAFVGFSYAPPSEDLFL", "in_short": "as §1"}},
  "data": [
    {"smiles": "COc1cc2c(cn1)N(C)C(=O)[C@@H](NC(=O)c1nc3n(n1)[C@H](c1ccccc1)CC3)CC2", "note": "[GNE684, (S)-N-((S)-7-methoxy-1-methyl-2-oxo-2,3,4,5-tetrahydro-1H-pyrido[3,4-b]azepin-3-yl)-5-phenyl-6,7-dihydro-5H-pyrrolo[1,2-b][1,2,4]triazole-2-carboxamide]", "values": [
      {"measurement": "inhibition at 10 µM", "setting": "TRKA", "value": -3, "unit": "%"},
      {"measurement": "inhibition at 10 µM", "setting": "CLK1", "value": -0.5, "unit": "%"},
      {"measurement": "inhibition at 10 µM", "setting": "CLK4", "value": 2.5, "unit": "%"},
      {"measurement": "inhibition at 10 µM", "setting": "Abl", "value": 2, "unit": "%"},
      {"measurement": "inhibition at 10 µM", "setting": "FLT3", "value": 10, "unit": "%"},
      {"measurement": "inhibition at 10 µM", "setting": "EPHB3", "value": 3.5, "unit": "%"},
      {"measurement": "inhibition at 10 µM", "setting": "PI3K-G", "value": 13.5, "unit": "%"},
      {"measurement": "inhibition at 10 µM", "setting": "GRK6", "value": 6.5, "unit": "%"},
      {"measurement": "inhibition at 10 µM", "setting": "MEKK2", "value": 7, "unit": "%"},
      {"measurement": "inhibition at 10 µM", "setting": "TNK2", "value": 2.5, "unit": "%"},
      {"measurement": "inhibition at 10 µM", "setting": "NEK6", "value": -2, "unit": "%"},
      {"measurement": "inhibition at 10 µM", "setting": "FGR", "value": 8, "unit": "%"},
      {"measurement": "inhibition at 10 µM", "setting": "SIK2", "value": 8.5, "unit": "%"},
      {"measurement": "inhibition at 10 µM", "setting": "PDK1(direct)", "value": 5, "unit": "%"},
      {"measurement": "inhibition at 10 µM", "setting": "RSK1", "value": 4.5, "unit": "%"},
      {"measurement": "inhibition at 10 µM", "setting": "RIPK2", "value": 2, "unit": "%"},
      {"measurement": "inhibition at 10 µM", "setting": "IKK-epsilon", "value": 3, "unit": "%"},
      {"measurement": "inhibition at 10 µM", "setting": "MSK1", "value": -4, "unit": "%"},
      {"measurement": "inhibition at 10 µM", "setting": "ARK5", "value": -6.5, "unit": "%"},
      {"measurement": "inhibition at 10 µM", "setting": "FLT1", "value": 3.5, "unit": "%"},
      {"measurement": "inhibition at 10 µM", "setting": "p70S6K", "value": 10, "unit": "%"},
      {"measurement": "inhibition at 10 µM", "setting": "HIPK2", "value": -1.5, "unit": "%"},
      {"measurement": "inhibition at 10 µM", "setting": "SGK3", "value": 1.5, "unit": "%"}
    ]}
  ]
}
